According to patent US9421157B2, “Use of C-glycoside derivatives as pro-desquamating active agents” (L'OREAL, priority 2006, dated 2016):

Test system: corneodesmosine
Assay: Desquamating activity: immunodetection of corneodesmosine on varnish strippings of dry skin after incubation with product
Assay type: biochemical
Details: 7% by weight in Arlacel/Myrj base, 5 days at 37° C., 70% relative humidity
Experimental: In this test, corneodesmosine is sought by immunodetection after incubation. Corneodesmosine is one of the key markers of desquamation of […]. It is studied on an immunoblot after electrophoresis separation and transfer onto a membrane.
3×3.5 cm rectangles are cut out of varnish strippings performed on the calf area of legs bearing dry skin. They are each treated with 42 mg of product (4 mg/cm^2). Controls and tests are performed in parallel. A blank without product is prepared under the same conditions.
The tests are incubated at 37° C. and 70% relative humidity for 5 days. The controls are stored for 5 days at −20° C. Thus, 5 tests and 5 controls are obtained.
For each of the samples, acetone powders are prepared and weighed out. The proteins are extracted with 100 μl/mg of whole Laemmli buffer. They are assayed according to the Bradford method. The protein content of each sample is adjusted and allows a direct comparison of the various samples. The proteins are separated by SDS-Page electrophoresis on 12% acrylamide gel.
After transferring the proteins onto a PVDF membrane, the immunodetection is performed with the anticorneodesmosine antibody G3619 (Guy Serre) at 1/12500 according to a standard western blot technique. Revelation is performed by chemiluminescence. The bands detected by the Fluor Smax machine (Biorad) are quantified with the quantity-one software (Biorad).

OCC(O)CO [Glycerol]
degradation of corneodesmosine (result in words): substantial degradation of corneodesmosine

CC(O)C[C@@H]1OC[C@@H](O)[C@H](O)[C@H]1O (stereo partly drawn) [C-β-D-xylopyranoside-2-hydroxypropane]
degradation of corneodesmosine (result in words): positive effect
